In ChEMBL document CHEMBL1144597, “Synthesis and evaluation of aryl thioxothiazolidinone inhibitors of ADAMTS-5 (Aggrecanase-2)” (Bioorg Med Chem Lett, 2007):

Biological target: T1, A disintegrin and metalloproteinase with thrombospondin motifs 5 (Homo sapiens, UniProt Q9UNA0)
T1 sequence (Q9UNA0 whole entry): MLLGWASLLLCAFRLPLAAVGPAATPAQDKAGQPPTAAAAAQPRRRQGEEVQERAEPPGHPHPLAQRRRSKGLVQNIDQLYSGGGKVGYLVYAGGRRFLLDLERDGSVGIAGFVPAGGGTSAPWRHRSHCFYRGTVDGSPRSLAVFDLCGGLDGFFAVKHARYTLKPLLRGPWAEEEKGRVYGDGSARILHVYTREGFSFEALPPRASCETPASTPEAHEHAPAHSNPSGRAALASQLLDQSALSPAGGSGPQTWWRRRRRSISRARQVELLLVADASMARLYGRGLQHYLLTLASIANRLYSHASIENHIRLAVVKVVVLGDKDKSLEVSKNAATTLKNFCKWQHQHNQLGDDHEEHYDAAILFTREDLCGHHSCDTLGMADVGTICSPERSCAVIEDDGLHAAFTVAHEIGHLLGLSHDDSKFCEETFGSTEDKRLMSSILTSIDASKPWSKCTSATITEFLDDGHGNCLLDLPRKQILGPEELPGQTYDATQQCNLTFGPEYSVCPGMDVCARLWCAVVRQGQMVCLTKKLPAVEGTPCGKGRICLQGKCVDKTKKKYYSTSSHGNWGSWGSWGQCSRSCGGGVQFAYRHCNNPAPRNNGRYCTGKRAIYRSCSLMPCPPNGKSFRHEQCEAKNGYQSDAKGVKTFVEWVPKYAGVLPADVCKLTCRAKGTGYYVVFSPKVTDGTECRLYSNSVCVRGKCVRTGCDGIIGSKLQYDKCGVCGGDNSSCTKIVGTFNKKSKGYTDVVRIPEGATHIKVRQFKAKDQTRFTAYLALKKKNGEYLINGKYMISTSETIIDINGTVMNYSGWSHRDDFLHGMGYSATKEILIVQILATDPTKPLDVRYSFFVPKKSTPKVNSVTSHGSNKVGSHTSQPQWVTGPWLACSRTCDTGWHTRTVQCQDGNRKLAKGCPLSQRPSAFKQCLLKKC
Test: Inhibition of ADAMTS5

SMILES | IC50
O=C1/C(=C\c2ccc(OCc3ccccc3)c(OCc3ccccc3)c2)SC(=S)N1Cc1ccccc1 | > 67 µM
O=C1NC(=S)S/C1=C/c1ccc(OCc2ccccc2)c(OCc2ccccc2)c1 | 1.8 µM
COc1ccc(COc2ccc(/C=C3/SC(=S)NC3=O)cc2OC)cc1 | 11.6 µM
O=C1NC(=S)S/C1=C/c1cccc(Oc2ccccc2)c1 | > 22 µM
O=C1NC(=S)S/C1=C/c1cccc(Oc2ccc(Cl)cc2)c1 | 4.9 µM
Cc1ccc(Oc2cccc(/C=C3/SC(=S)NC3=O)c2)cc1 | 14.8 µM
O=C(O)CCN1C(=O)/C(=C\c2ccc(OCc3ccccc3)c(OCc3ccccc3)c2)SC1=S | 5.3 µM
O=C1NC(=S)S/C1=C/c1cccc(Oc2cc(Cl)cc(Cl)c2)c1 | 2.5 µM
O=C1NC(=O)/C(=C\c2cccc(Oc3ccc(Cl)cc3)c2)S1 | > 22 µM
O=C1NC(=O)/C(=C\c2cccc(Oc3ccc(Cl)c(Cl)c3)c2)S1 | 10 µM
O=C1NC(=O)/C(=C\c2cccc(Oc3cc(Cl)cc(Cl)c3)c2)S1 | 9.2 µM
O=C(O)CN1C(=O)/C(=C\c2cccc(Oc3ccc(Cl)c(Cl)c3)c2)SC1=S | 11.1 µM
O=C1NC(=O)/C(=C\c2cccc(Oc3ccc(Cl)cc3)c2)N1 | > 67 µM
O=C1NC(=O)/C(=C\c2cccc(Oc3cc(Cl)cc(Cl)c3)c2)N1 | > 67 µM
CN1C(=O)NC(=O)/C1=C\c1cccc(Oc2ccc(Cl)cc2)c1 | > 22 µM
O=C(O)C(c1ccccc1)N1C(=O)/C(=C\c2cccc(Oc3ccc(Cl)c(Cl)c3)c2)SC1=S (stereo unspecified) | 1.3 µM
O=C(O)[C@@H](Cc1ccccc1)N1C(=O)/C(=C\c2cccc(Oc3ccc(Cl)c(Cl)c3)c2)SC1=S | 1.6 µM
O=C(O)C(c1ccccc1)N1C(=O)/C(=C\c2ccc(OCc3ccccc3)c(OCc3ccccc3)c2)SC1=S (stereo unspecified) | 0.9 µM
COc1cc(/C=C2/SC(=S)NC2=O)ccc1OCc1ccc(Cl)cc1 | 3.5 µM
COc1ccc(Oc2cccc(/C=C3/SC(=S)NC3=O)c2)cc1 | 16.2 µM
CC(C)[C@H](C(=O)O)N1C(=O)/C(=C\c2cccc(Oc3ccc(Cl)c(Cl)c3)c2)SC1=S | 1.8 µM
O=C1NC(=S)S/C1=C/c1cccc(Oc2ccc(Cl)c(Cl)c2)c1 | 3.2 µM
O=C(O)CN1C(=O)/C(=C\c2ccc(OCc3ccccc3)c(OCc3ccccc3)c2)SC1=S | 6.7 µM
CN1C(=O)/C(=C\c2ccc(OCc3ccccc3)c(OCc3ccccc3)c2)SC1=S | > 67 µM

Next, values leading:

IC50 | SMILES
20.1 µM | O=C1NC(=S)S/C1=C/c1cccc(OCc2ccccc2)c1
1.4 µM | O=C1NC(=S)S/C1=C/c1cc(OCc2ccccc2)cc(OCc2ccccc2)c1
> 22 µM | COc1cc(/C=C2/SC(=S)NC2=O)ccc1OCc1ccccc1
1.7 µM | CC(C)(C)c1ccc(Oc2cccc(/C=C3/SC(=S)NC3=O)c2)cc1
> 67 µM | O=C1/C(=C\c2ccc(OCc3ccccc3)c(OCc3ccccc3)c2)SC(=S)N1CCc1ccccc1
1.1 µM | CC(C)[C@H](C(=O)O)N1C(=O)/C(=C\c2ccc(OCc3ccccc3)c(OCc3ccccc3)c2)SC1=S
> 67 µM | CC(C)(C)c1ccc(Oc2cccc(/C=C3/NC(=O)NC3=O)c2)cc1
1.3 µM | O=C(O)[C@@H](Cc1ccccc1)N1C(=O)/C(=C\c2ccc(OCc3ccccc3)c(OCc3ccccc3)c2)SC1=S
5.3 µM | O=C1NC(=S)S/C1=C/c1cccc(Oc2ccc(C(F)(F)F)cc2)c1
> 67 µM | O=C1/C(=C\c2ccc(OCc3ccccc3)c(OCc3ccccc3)c2)SC(=S)N1c1ccccc1
6.8 µM | CC(C)(C)c1ccc(Oc2cccc(/C=C3/SC(=O)NC3=O)c2)cc1
> 67 µM | CCN1C(=O)/C(=C\c2ccc(OCc3ccccc3)c(OCc3ccccc3)c2)SC1=S
